According to patent US20090215822A1, “Substituted Oxadiazole Derivatives as Positive Allosteric Modulators of Metabotropic Glutamate Receptors” (NIKEM RESEARCH SRL, priority 2005, published 2009):

Assays:
rat mGluR5 receptor = target: T1, rat mGluR5 receptor (Rattus norvegicus, UniProt P31424); assay: mGluR5 assay on HEK-expressing rat mGluR5 (fluorescent cell based Ca2+ mobilization assay); conditions: HEK-293 cells stably expressing rat mGluR5; no co-addition of glutamate; mean of at least three independent experiments in duplicate; read-out: Ca++ Flux (mean EC50)
T1 construct: expressed in transfected cells
Protocol: Positive functional expression of HEK-293 cells stably expressing rat mGluR5 receptor was determined by measuring intracellular Ca^2+ changes using a Fluorometric Imaging Plate Reader (FLIPR, Molecular Devices, Sunnyvale, Calif.) in response to glutamate or selective known mGluR5 agonists and antagonists. Rat mGluR5 RT-PCR products in HEK-293 cells were sequenced and found 100% identical to rat mGluR5 Genbank reference sequence (NM_017012). HEK-293 cells expressing rmGluR5 were maintained in media containing DMEM, dialyzed Fetal Bovine Serum (10%), Glutamax™ (2 mM), Penicillin (100 units/ml), Streptomycin (100 μg/ml), Geneticin (100 μg/ml) and Hygromycin-B (40 μg/ml) at 37° C./5% CO2.
After one day of incubation, cells were washed with assay buffer containing: 142 mM NaCl, 6 mM KCl, 1 mM Mg2SO4, 1 mM CaCl2, 20 mM HEPES, 1 g/L glucose, 0.125 mM sulfinpyrazone, pH 7.4. After 60 min of loading with 4 uM Fluo-4 (TefLabs, Austin, Tex.), the cells were washed three times with 50 μl of PBS Buffer and resuspended in […] of assay Buffer. The plates were then transferred to a Fluorometric Imaging Plate Reader (FLIPR, Molecular Devices, Sunnyvale, Calif.) for the assessment of intracellular calcium flux. After monitoring the baseline fluorescence for 10 seconds, increasing concentrations of representative compound (from 0.01 to 60 μM) of the present invention diluted in Assay Buffer (15 μl of 4× dilutions) was added to the cell. The final DMSO concentration in the assay was 0.3%. In each experiment, fluorescence was then monitored as a function of time for 3 minutes and the data analyzed using Microsoft Excel and GraphPad Prism. Each data point was also measured two times.
Under these experimental conditions, this HEK-rat mGluR5 cell line is able to directly detect positive allosteric modulators without the need of co-addition of glutamate or mGluR5 agonist.
The concentration-response curves of representative compounds of the present invention were generated using the Prism GraphPad software (Graph Pad Inc, San Diego, USA). The curves were fitted to a four-parameter logistic equation:
(Y=Bottom+(Top-Bottom)/(1+10̂((Log EC50−X)*Hill Slope)
allowing determination of EC50 values.
The Table 1 below represents the mean EC50 obtained from at least three independent experiments of selected molecules performed in duplicate.

T1 sequence (P31424 21-1171 isoform P31424-2 limits assumed): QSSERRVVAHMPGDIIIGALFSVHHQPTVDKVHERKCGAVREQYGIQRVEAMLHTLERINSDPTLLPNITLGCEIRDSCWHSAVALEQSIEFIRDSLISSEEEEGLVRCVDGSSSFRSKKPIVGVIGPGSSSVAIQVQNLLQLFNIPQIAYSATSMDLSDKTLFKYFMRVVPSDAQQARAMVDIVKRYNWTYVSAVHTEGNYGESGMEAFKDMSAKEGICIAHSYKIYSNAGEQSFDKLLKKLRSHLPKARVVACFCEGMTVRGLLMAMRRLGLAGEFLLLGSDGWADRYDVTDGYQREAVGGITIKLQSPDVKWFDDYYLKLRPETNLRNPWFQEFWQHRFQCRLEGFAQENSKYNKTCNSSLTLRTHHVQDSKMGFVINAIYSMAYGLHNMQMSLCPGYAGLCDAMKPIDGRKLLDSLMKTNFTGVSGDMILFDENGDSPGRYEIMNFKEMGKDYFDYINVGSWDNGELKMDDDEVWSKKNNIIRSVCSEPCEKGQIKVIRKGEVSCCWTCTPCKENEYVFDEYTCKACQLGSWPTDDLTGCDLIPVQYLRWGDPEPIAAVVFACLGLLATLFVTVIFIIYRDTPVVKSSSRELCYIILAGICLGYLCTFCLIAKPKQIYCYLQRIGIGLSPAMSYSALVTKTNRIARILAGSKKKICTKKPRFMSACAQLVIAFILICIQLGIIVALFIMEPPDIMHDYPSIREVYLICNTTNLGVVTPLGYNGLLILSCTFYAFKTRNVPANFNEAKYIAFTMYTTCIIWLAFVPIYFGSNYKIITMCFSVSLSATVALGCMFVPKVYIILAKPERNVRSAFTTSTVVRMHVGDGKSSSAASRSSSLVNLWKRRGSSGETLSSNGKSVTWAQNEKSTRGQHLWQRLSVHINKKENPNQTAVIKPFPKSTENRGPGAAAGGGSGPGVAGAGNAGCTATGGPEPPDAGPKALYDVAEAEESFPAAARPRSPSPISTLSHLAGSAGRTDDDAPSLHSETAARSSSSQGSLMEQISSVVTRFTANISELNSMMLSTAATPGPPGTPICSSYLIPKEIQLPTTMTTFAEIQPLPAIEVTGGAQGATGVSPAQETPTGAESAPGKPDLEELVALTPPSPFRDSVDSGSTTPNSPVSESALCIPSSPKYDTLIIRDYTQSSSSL

Row | melting point | EC50 (rat mGluR5 receptor) | SMILES
1 | 124 to 126 °C | 1000 to 10000 nM | O=C(c1ccc(F)nc1)N1CCCC(c2noc(-c3ccccn3)n2)C1 (stereo not shown) [Example 12, (6-Fluoro-pyridin-3-yl)-[3-(5-pyridin-2-yl-[1,2,4]oxadiazol-3-yl)-piperidin-1-yl]-methanone]
2 | 117 to 119 °C | < 1000 nM | O=C(c1ccnc(F)c1)N1CCC[C@H](c2noc(-c3ccc(F)cc3)n2)C1 [Example 40, {(S)-3-[5-(4-Fluoro-phenyl)-[1,2,4]oxadiazol-3-yl]-piperidin-1-yl}-(2-fluoro-pyridin-4-yl)-methanone]
3 | 80 to 83 °C | < 1000 nM | O=C(c1ccc(F)c(F)c1)N1CCCC(c2noc(-c3ccccc3F)n2)C1 (stereo not shown) [Example 3, (3,4-Difluoro-phenyl)-{3-[5-(2-fluoro-phenyl)-[1,2,4]oxadiazol-3-yl]-piperidin-1-yl}-methanone]
4 | 116 to 118 °C | < 1000 nM | O=C(c1ccc(F)c(F)c1)N1CCCC(c2noc(-c3ccccc3)n2)C1 (stereo not shown) [Example 32, (3,4-Difluoro-phenyl)-[3-(5-phenyl-[1,2,4]oxadiazol-3-yl)-piperidin-1-yl]-methanone]
5 | 120 °C | < 1000 nM | O=C(c1ccc(F)c(F)c1)N1CCC[C@H](c2noc(-c3ccc(F)cc3)n2)C1 [Example 37, (3,4-Difluoro-phenyl)-{(S)-3-[5-(4-fluoro-phenyl)-[1,2,4]oxadiazol-3-yl]-piperidin-1-yl}-methanone]
6 |  | < 1000 nM | Cc1oncc1C(=O)N1CCCC(c2noc(-c3ccccc3F)n2)C1 (stereo not shown) [Example 7, {3-[5-(2-Fluoro-phenyl)-[1,2,4]oxadiazol-3-yl]-piperidin-1-yl}-(5-methyl-isoxazol-4-yl)-methanone]
7 | 129 to 131 °C | 1000 to 10000 nM | Cc1cc(F)ccc1C(=O)N1CCCC(c2noc(-c3ccc(F)cc3)n2)C1 (stereo not shown) [Example 27, (4-Fluoro-2-methyl-phenyl)-{3-[5-(4-fluoro-phenyl)-[1,2,4]oxadiazol-3-yl]-piperidin-1-yl}-methanone]
8 |  | < 1000 nM | O=C(c1cc(F)ccc1F)N1CCC[C@H](c2noc(-c3ccccn3)n2)C1 [Example 54, (2,5-Difluoro-phenyl)-[(S)-3-(5-pyridin-2-yl-[1,2,4]oxadiazol-3-yl)-piperidin-1-yl]-methanone]
9 | 132 to 134 °C | 1000 to 10000 nM | O=C(c1ccc(F)nc1)N1CCCC(c2noc(-c3ccncc3)n2)C1 (stereo not shown) [Example 21, (6-Fluoro-pyridin-3-yl)-[3-(5-pyridin-4-yl-[1,2,4]oxadiazol-3-yl)-piperidin-1-yl]-methanone]
10 | 149 to 151 °C | 1000 to 10000 nM | O=C(c1ccc(F)cc1)N1CCCC(c2noc(-c3ccncc3)n2)C1 (stereo not shown) [Example 14, (4-Fluoro-phenyl)-[3-(5-pyridin-4-yl-[1,2,4]oxadiazol-3-yl)-piperidin-1-yl]-methanone]
11 |  | < 1000 nM | O=C(c1ccc(F)cc1)N1CCCC(c2noc(-c3ccccc3)n2)C1 (stereo not shown) [Example 26, (4-Fluoro-phenyl)-[3-(5-phenyl-[1,2,4]oxadiazol-3-yl)-piperidin-1-yl]-methanone]
12 | 116 to 117 °C | < 1000 nM | O=C(c1ccc(F)cc1F)N1CCCC(c2noc(-c3ccccc3)n2)C1 (stereo not shown) [Example 33, (2,4-Difluoro-phenyl)-[3-(5-phenyl-[1,2,4]oxadiazol-3-yl)-piperidin-1-yl]-methanone]
13 |  | 1000 to 10000 nM | O=C(c1cccc(F)c1F)N1CCC[C@H](c2noc(-c3ccccn3)n2)C1 [Example 55, (2,3-Difluoro-phenyl)-[(S)-3-(5-pyridin-2-yl-[1,2,4]oxadiazol-3-yl)-piperidin-1-yl]-methanone]
14 |  | 1000 to 10000 nM | Cc1cc(F)ccc1C(=O)N1CCCC(c2noc(-c3ccccc3F)n2)C1 (stereo not shown) [Example 23, (4-Fluoro-2-methyl-phenyl)-{3-[5-(2-fluoro-phenyl)-[1,2,4]oxadiazol-3-yl]-piperidin-1-yl}-methanone]
15 |  | 1000 to 10000 nM | O=C(c1ccc(F)cc1)N1CCCC(c2noc(C3CCCC3)n2)C1 (stereo not shown) [Example 35, (4-Fluoro-phenyl)-[3-(5-cyclopentyl-[1,2,4]oxadiazol-3-yl)-piperidin-1-yl]-methanone]
16 |  | 1000 to 10000 nM | O=C(c1ccc(F)cc1)N1CCC[C@H](c2noc(-c3ccncc3F)n2)C1 [Example 49, (4-Fluoro-phenyl)-{(S)-3-[5-(3-fluoro-pyridin-4-yl)-[1,2,4]oxadiazol-3-yl]-piperidin-1-yl}-methanone]

Row | melting point | EC50 (rat mGluR5 receptor) | SMILES
17 |  | 1000 to 10000 nM | O=C(c1ccc(F)c(F)c1)N1CCC[C@H](c2noc(-c3ccncc3F)n2)C1 [Example 50, (3,4-Difluoro-phenyl)-{(S)-3-[5-(3-fluoro-pyridin-4-yl)-[1,2,4]oxadiazol-3-yl]-piperidin-1-yl}-methanone]
18 |  | 1000 to 10000 nM | O=C(c1c(F)cccc1F)N1CCC[C@H](c2noc(-c3ccccn3)n2)C1 [Example 53, (2,6-Difluoro-phenyl)-[(S)-3-(5-pyridin-2-yl-[1,2,4]oxadiazol-3-yl)-piperidin-1-yl]-methanone]
19 |  | 1000 to 10000 nM | O=C(c1ccc(F)cc1)N1CCC[C@H](c2noc(-c3ccccn3)n2)C1 [Example 46, (S)-(4-fluorophenyl)-{3-[5-(pyridin-2-yl)-[1,2,4]oxadiazol-3-yl]-piperidin-1-yl}-methanone]
20 |  | 1000 to 10000 nM | Cc1cc(F)ccc1C(=O)N1CCCC(c2noc(-c3ccccc3)n2)C1 (stereo not shown) [Example 34, (4-Fluoro-2-methyl-phenyl)-[3-(5-phenyl-[1,2,4]oxadiazol-3-yl)-piperidin-1-yl]-methanone]
21 |  | 1000 to 10000 nM | Cc1cc(F)ccc1C(=O)N1CCCC(c2noc(-c3ccncc3)n2)C1 (stereo not shown) [Example 22, (4-Fluoro-2-methyl-phenyl)-[3-(5-pyridin-4-yl-[1,2,4]oxadiazol-3-yl)-piperidin-1-yl]-methanone]
22 |  | 1000 to 10000 nM | O=C(c1cncc(F)c1)N1CCC[C@H](c2noc(-c3ccc(F)cc3)n2)C1 [Example 43, {(S)-3-[5-(4-Fluoro-phenyl)-[1,2,4]oxadiazol-3-yl]-piperidin-1-yl}-(5-fluoro-pyridin-3-yl)-methanone]
23 |  | < 1000 nM | O=C(c1ccncc1F)N1CCC[C@H](c2noc(-c3ccc(F)cc3)n2)C1 [Example 41, {(S)-3-[5-(4-Fluoro-phenyl)-[1,2,4]oxadiazol-3-yl]-piperidin-1-yl}-(3-fluoro-pyridin-4-yl)-methanone]
24 |  | < 1000 nM | O=C(c1c(F)cc(F)cc1F)N1CCC[C@H](c2noc(-c3ccccn3)n2)C1 [Example 51, [(S)-3-(5-Pyridin-2-yl-[1,2,4]oxadiazol-3-yl)-piperidin-1-yl]-(2,4,6-trifluoro-phenyl)-methanone]
25 |  | > 10000 nM | Cc1oncc1C(=O)N1CCCC(c2noc(-c3ccncc3)n2)C1 (stereo not shown) [Example 20, (5-Methyl-isoxazol-4-yl)-[3-(5-pyridin-4-yl-[1,2,4]oxadiazol-3-yl)-piperidin-1-yl]-methanone]
26 |  | < 1000 nM | O=C(c1ccc(F)cc1F)N1CCCC(c2noc(-c3ccccc3F)n2)C1 (stereo not shown) [Example 4, (2,4-Difluoro-phenyl)-{3-[5-(2-fluoro-phenyl)-[1,2,4]oxadiazol-3-yl]-piperidin-1-yl}-methanone]
27 |  | < 1000 nM | O=C(c1ccc(F)c(F)c1)N1CCC[C@H](c2noc(-c3ccc(F)cn3)n2)C1 [Example 45, (S)-(3,4-difluorophenyl)-{3-[5-(5-fluoropyridin-2-yl)-[1,2,4]oxadiazol-3-yl]-piperidin-1-yl}-methanone]
28 |  | > 10000 nM | Cn1cnc(-c2nc([C@H]3CCCN(C(=O)c4ccc(F)cc4)C3)no2)c1 [Example 48, (4-Fluoro-phenyl)-{(S)-3-[5-(1-methyl-1H-imidazol-4-yl)-[1,2,4]oxadiazol-3-yl]-piperidin-1-yl}-methanone]
29 |  | < 1000 nM | O=C(c1ccc(F)c(F)c1F)N1CCC[C@H](c2noc(-c3ccccn3)n2)C1 [Example 52, [(S)-3-(5-Pyridin-2-yl-[1,2,4]oxadiazol-3-yl)-piperidin-1-yl]-(2,3,4-trifluoro-phenyl)-methanone]
30 |  | < 1000 nM | O=C(c1ccc(F)c(F)c1)N1CCC[C@H](c2noc(-c3ccccn3)n2)C1 [Example 47, (S)-(3,4-Difluorophenyl)-{3-[5-(pyridin-2-yl)-[1,2,4]oxadiazol-3-yl]-piperidin-1-yl}-methanone]
31 |  | 1000 to 10000 nM | CNc1cc(F)ccc1C(=O)N1CCCC(c2noc(-c3ccccc3F)n2)C1 (stereo not shown) [Example 5, (4-Fluoro-2-methylamino-phenyl)-{3-[5-(2-fluoro-phenyl)-[1,2,4]oxadiazol-3-yl]-piperidin-1-yl}-methanone]
